In patent US20120077831A1, “METHODS AND ASSAYS FOR THE TREATMENT OF IRRITABLE BOWEL SYNDROME” (priority 2009, published 2012):

Columns and labels:
[1] = system: patients suffering from IBS-D or IBS-A; test: phase 2a clinical trial in IBS patients: weekly global assessment and Bristol Stool Scale; assay type: in vivo, human
Experimental: (§1) A randomized, double-blind, placebo-controlled phase 2a clinical trial was conducted to assess the safety and efficacy of a TPH inhibitor, (S)-2-amino-3-(4-(2-amino-6-((R)-2,2,2-trifluoro-1-(3′-methoxybiphenyl-4-yl)ethoxy)pyrimidin-4-yl)phenyl)propanoic acid, in 155 patients suffering from IBS-D or IBS-A, based on Rome III criteria. Capsules containing the compound or placebo were orally administered. Two dose levels were tested: 250 mg QID and 1000 mg QID. A two-week run-in period was used to establish baseline symptoms, followed by a 28 day randomized, double-blind treatment period. There was then a two-week follow-up period.
(§2) During the study, patients' urine and blood were obtained to assess 5-HIAA and 5-HT levels. Methods used to assess clinical endpoints were: 1) global assessment by weekly questioning regarding adequate relief of IBS pain and discomfort; and 2) Bristol Stool Scale was used to assess stool consistency by daily automated telephonic IVRS contact.

5-HIAA and 5-HT levels = test: phase 2a clinical trial in IBS patients: blood 5-HT and 24 hour urinary 5-HIAA levels; assay type: in vivo, human; conditions: oral dosing
Experimental: as §1, §2

In the case of COc1cccc(-c2ccc([C@@H](Oc3cc(-c4ccc(C[C@H](N)C(=O)O)cc4)nc(N)n3)C(F)(F)F)cc2)c1 [(S)-2-amino-3-(4-(2-amino-6-((R)-2,2,2-trifluoro-1-(3′-methoxybiphenyl-4-yl)ethoxy)pyrimidin-4-yl)phenyl)propanoic acid], the “improvement in global response in relation to baseline serotonin levels (5-HIAA in 24 hour urine prior to dosing)” value ([1]; IBS patients with comparatively high baseline levels versus those without) is reported as “greater beneficial effect in IBS patients who had comparatively high baseline levels”, the “weekly global assessment (adequate relief of IBS pain and discomfort)” value ([1]; high dose arm (1000 mg QID, oral capsules) versus placebo, 28 day treatment period) is reported as “statistically significant improvement versus placebo” and the “stool consistency (Bristol Stool Scale)” value ([1]; high dose arm (1000 mg QID, oral capsules), 28 day treatment period) is reported as “significant improvement”. The “24 hour urinary 5-HIAA levels” value (5-HIAA and 5-HT levels) was “significant reduction” and the “blood 5-HT levels” value (5-HIAA and 5-HT levels) was “reduction”.
